The source of these data is patent publication US9222070B2, “Cell therapy method for the treatment of tumors” (Janssen Pharmaceuticals, Inc., priority 2001, dated 2015).

Test [1] has as its system CD8 cells. The test is described as follows: Ex vivo CTL generation with peptide-loaded Drosophila cells. The test is classed as cell-based, human. The settings on record: for frequency of CTL generation: normal donors, summary of Table 7; for CTL activity elicited by single epitope on Drosophila cells: donor #60, peptide added alone, lysis on JY cells, vs control HBc peptide. The source says: Human CTLs from healthy subjects were immunized in vitro against tyrosinase, MART-1 and gp100 when loaded separately on Drosophila APCs and evaluated for lysis on JY cells (FIG. 4). […] Melanoma-specific CTLs from healthy subjects were induced using the full stimulation/re-stimulation protocol and tested for their ability to lyse Jurkat cells loaded with each of the of the peptides used in the stimulations (FIG. 5). […]. […] One in which the multiple peptides were loaded onto individual Drosophila cells and mixed before the primary stimulation (combo mix), or the multiple peptides were mixed and then loaded onto the Drosophila APCs (combo load).
All of the peptides were synthesized, given an identification number (PRI#) and evaluated for the ability to generate CTLs ex vivo utilizing the same method we employed for melanoma-associated, T cell peptide epitopes. CD8 cells were isolated from normal donors to determine the ability to routinely generate CTLs ex vivo with Drosophila cells loaded with known CTL peptide epitopes.
Standard ^51Cr-release assays were performed to determine CTL effector cell recognition of melanoma-associated peptide epitopes loaded onto T2 cells. […] 0.1mCi of ^51Cr was added and incubated at 37° C. in a water bath. […] The cells were pulsed with the appropriate peptide(s) at 20 μg/mL for thirty minutes. 50 μL was added to each 96-well plate each containing CD8 effector cells at 10, 2, 0.4, and 0.08×10^6/mL, which was incubated at 37° C. for six hours, spun and harvested for supernatant.
To extend the ability to raise CTLs to other tumor antigens present in a wide variety of other cancers we have selected published and novel sequences to tumor antigens common to several different tumor types.

Test [2] has as its target T1, HLA-A2.1 molecule (Homo sapiens, UniProt P04439, D140Y/D185E/D98H/E176V/E277Q/G131W/G231S/I119V/I121R/I166T/I218V/L300P/L318F/N151K/N90K/P208A/P217A/Q86G/Q94H/R138H/R169H/T345S).
T1 construct: expressed in transfected cells; host or cells: Drosophila melanogaster Schneider S2 cells (ATCC CRL 10974), pRmHa-3 vector, CuSO4 induction
Kind of test: Peptide binding on Drosophila cells expressing HLA-A2.1.

The subject of test [3] is TAP-1. Kind of test: Microarray DNA chip analysis of mRNA levels after IFNγ induction. The settings on record: HTB-77/A2.1 cells after IFNγ induction. The test is classed as cell-based, human.
Test [4] concerns HER-2. The test is described as follows: FACS analysis of surface expression after IFNγ induction. The test is classed as cell-based, human. On the procedure: (§1) The cells were treated with 500 U/ml of IFNγ (specific activity of 25 ng/ml) for twenty-four hours prior to the initiation of the ^51Cr-release assay. […] To determine the effect of this dose of IFNg on the surface expression of both HLA-A2.1 and HER-2, a FACS analysis was performed to determine the levels of these molecules after both twenty-four and forty-eight hours of induction. FIG. 18, Panels A and B depict the FACS analysis results. […] This would explain why there is an enhance killing of the HTB-77/A2.1 cells in the presence of IFNγ. An up-regulation of this particular molecule would result in more efficient processing of the HER-2 molecule, allowing better presentation of the peptides of interest
For orientation: A flow cytometer gives signals particle by particle.

For test [5], the system named is HLA-A2.1. The test is described as above. The settings on record: HLA-A2.1 transfected HTB-77 cells, similar treatment protocol. The test is classed as cell-based, human. On the procedure:
as §1

In test [6] the test system is HTB-77/A2.1 cell line. Kind of test: 51Cr-release lysis after IFNγ pretreatment. Type of test: cell-based, human. The settings on record: 500 U/ml for twenty-four hours prior to 51Cr-release assay. On the procedure:
as §1

The subject of test [7] is CD8+ T cells. The test is described as follows: HLA-A2.1 tetramer staining of HER-2 peptide-specific CTLs. Type of test: cell-based, human. The settings on record: donor 262, after four-week ex vivo stimulation protocol.
Description: The cells were labeled with FITC- or PE conjugated monoclonal antibodies by incubation at 4° C. for 30 minutes in FACS buffer (1% BSA, 0.02% NaN3 in PBS), followed by a wash in the same buffer. Cells were fixed in 0.5% formaldehyde prior to data acquisition and analysis on a FACScan flow cytometer (Becton Dickinson) with its CellQuest software. Nonspecific staining was measured with the same secondary antibody used to label purified primary antibodies, or an isotype-matched control when the primary antibodies were directly labeled. Tetrameric staining was performed with HLA-A2.1 specific HIVgag tetrameric molecules (Beckman Coulter) harboring the sequence [sequence] […] PE-labeled tetrameric HLA-A2.1-peptide complexes were used in conjunction with fluorescein isothiocyanate (FITC)-labeled anti-human CD8a (BD PharMagin) monoclonal antibodies to stain epitope-specific CD8+ T cells as described in package insert. Samples were analyzed by two-color flow cytometry on a Becton Dickinson FACScan, and gated CD8+ T cells were examined for staining with tetrameric HLA-A2.1-peptide complexes.
For test [8], the system named is breast adenocarcinoma cell line (ATCC; HTB-131) transfected with HLA-A2.1. Kind of test: Tumor lysis by HER-2 peptide-specific CTL effectors. The test is classed as cell-based, human. The note with it: cell line transfected with HLA-A2.1.

Consider CLTSTVQLV [Peptide 826], for which the “frequency of CTL generation” value in test [1] was “highest frequency of CTL generation”.
For the substance ELVSEFSRM [Peptide 863], the “binding to the HLA-A2.1 molecule on transfected Drosophila cells” value in test [2] is reported as “weak to moderate binders”. Further, the “frequency of CTL generation” value in test [1] is reported as “highest frequency of CTL generation”.
In the case of “IFNγ: interferon gamma used to pretreat tumor cell lines at 500 U/ml”, the “level of TAP-1 expression (mRNA); also HLA-DM and -DR, Cathepsin S and D and Caspase 5” value in test [3] was “increase in the level of TAP-1 expression”. For the same substance, the HER-2 surface expression result in test [4] (HLA-A2.1 transfected HTB-77 cells, similar treatment protocol) is recorded as “neither HER-2 nor HLA-A2.1 demonstrated an increase”; in test [4] (HTB-77 cells, twenty-four and forty-eight hours after induction) it was “no enhancement”. Further, the HLA-A2.1 surface expression entry in test [5] is listed as “neither HER-2 nor HLA-A2.1 demonstrated an increase”. Also, the “lysis of HLA-A2.1 transfected cell line” value in test [6] was “enhanced lysis”.
As to ITDQVPFSV [Peptide 817], in test [1], the “CTL activity elicited by single epitope on Drosophila cells” value is “CTL activity was elicited”.
As for VMAGVGSPYV [Peptide 861], the “binding to the HLA-A2.1 molecule on transfected Drosophila cells” value in test [2] was “weak to moderate binders”. Moreover, the “frequency of CTL generation” value in test [1] is “highest frequency of CTL generation”. Moreover, the “peptide-specific CTLs, tetramer-positive” value in test [7] is recorded as 15.1%. The “lysis of tumor cell line by CTLs specific for the peptide” value in test [8] was “could lysis this tumor cell line”.
For YMNGTMSQV [Peptide 689], the “CTL activity elicited by single epitope on Drosophila cells” value in test [1] is “CTL activity was elicited”.
